# Measurements taken from ChEMBL document CHEMBL1201862, “PubChem BioAssay data set” (2004).
# Calls of active or inactive are those of the source.
# Columns and labels:
# [1] = Fluorescence-based cell-based high throughput dose response assay for inhibitors of the interaction of nucleotide-binding oligomerization domain containing 2 (NOD2) and the receptor-interacting serine-threonine kinase 2 (RIPK2).; assay type: functional; conditions: Homo sapiens
# [2] = target: Nuclear receptor ROR-alpha (Homo sapiens, UniProt P35398); test: LXR, FXR and VP16 reporter activity, cell-based, luciferase reporter, ROR modulator project, late-stage follow-up, panel member RORA (AID 2117)
# [3] = target: Nuclear receptor ROR-gamma (Homo sapiens, UniProt P51449); test: LXR, FXR and VP16 reporter activity, cell-based, luciferase reporter, ROR modulator project, late-stage follow-up, panel member RORG (AID 2117)
# Beta Lactamase = Beta Lactamase (Pseudomonas aeruginosa, UniProt Q932Y6); test: BLA reporter interference, concentration series – BLA reporter cells, FRET fluorescence, artefact control for NOD2-RIPK2 interaction inhibitor project, dose response (AID 651552); assay type: functional, cell-based
# [4] = target: T1, Intestinal-type alkaline phosphatase (Homo sapiens, UniProt P09923); test: inhibition of human intestinal alkaline phosphatase – biochemical, luminescent, uHTS hits, set 2, dose response (AID 488793); assay type: functional
# [5] = target: T1, Intestinal-type alkaline phosphatase; test: Dose Response confirmation of uHTS hits from a small molecule inhibitors of human intestinal alkaline phosphatase via a luminescent assay. [Related pubchem assays (depositor defined):AID2544, AID2574]; assay type: functional
# [6] = target: T2, Intestinal-type alkaline phosphatase (Mus musculus, UniProt P24822); test: PubChem AID 488875; assay type: functional
# [7] = target: T3, Alkaline phosphatase, tissue-nonspecific isozyme (Homo sapiens, UniProt P05186); test: inhibition of tissue-nonspecific alkaline phosphatase – biochemical, dose response (AID 488882); assay type: functional
# T3 sequence (P05186 whole entry): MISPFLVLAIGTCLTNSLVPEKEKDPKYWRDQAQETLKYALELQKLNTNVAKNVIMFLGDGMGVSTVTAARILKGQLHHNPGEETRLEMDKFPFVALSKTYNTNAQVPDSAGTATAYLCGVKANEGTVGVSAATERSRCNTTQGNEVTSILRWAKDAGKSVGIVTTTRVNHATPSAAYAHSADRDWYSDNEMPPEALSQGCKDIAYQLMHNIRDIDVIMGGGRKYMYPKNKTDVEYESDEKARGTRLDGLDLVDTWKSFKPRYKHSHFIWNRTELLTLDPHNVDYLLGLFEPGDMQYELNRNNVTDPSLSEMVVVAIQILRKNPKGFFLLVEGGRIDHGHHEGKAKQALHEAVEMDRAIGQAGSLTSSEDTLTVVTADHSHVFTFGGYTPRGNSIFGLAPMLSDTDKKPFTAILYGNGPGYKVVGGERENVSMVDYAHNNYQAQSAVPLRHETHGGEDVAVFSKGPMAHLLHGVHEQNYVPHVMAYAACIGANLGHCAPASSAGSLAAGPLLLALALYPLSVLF
# Melanocortin receptor 4 = Melanocortin receptor 4 (Homo sapiens, UniProt P32245); test: inhibitors of MC4R cAMP signaling – cell-based, TR-FRET, biased antagonists, dose response (AID 602298); assay type: functional;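 further: antagonist potency against agonist-stimulated cAMP production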
# Streptokinase A = target: T4, Streptokinase A (Streptococcus pyogenes serotype M1, UniProt P10520); test: viability-normalized secreted streptokinase activity reduction – plasminogen activation absorbance, OD405, dose response (AID 1914); assay type: functional, Streptococcus pyogenes M1 GAS;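 further: secreted streptokinase activity via plasminogen activation per viability signal from cell pellet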
# T4 sequence (P10520 whole entry): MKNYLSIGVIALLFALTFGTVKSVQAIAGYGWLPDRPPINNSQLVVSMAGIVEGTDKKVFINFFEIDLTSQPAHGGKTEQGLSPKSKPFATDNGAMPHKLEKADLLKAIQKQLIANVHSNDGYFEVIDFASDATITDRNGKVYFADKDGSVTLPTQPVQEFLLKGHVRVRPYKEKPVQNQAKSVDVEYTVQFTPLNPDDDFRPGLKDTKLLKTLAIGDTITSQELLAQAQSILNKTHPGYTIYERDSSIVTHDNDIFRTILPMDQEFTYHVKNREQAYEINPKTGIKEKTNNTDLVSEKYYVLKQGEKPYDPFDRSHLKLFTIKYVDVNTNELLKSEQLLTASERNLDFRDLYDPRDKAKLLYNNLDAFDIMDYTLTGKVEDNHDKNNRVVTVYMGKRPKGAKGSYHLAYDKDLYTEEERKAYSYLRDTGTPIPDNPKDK
# [8] = cAMP pathway inhibition in counterscreen cell line – TR-FRET cAMP detection, counter-screen for MC4R biased antagonist project, dose response (AID 602305); assay type: functional, cell-based;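 further: U2OS cells stimulated with forskolin near its EC80 as the cAMP inducer; potency is for inhibition of forskolin-stimulated cAMP signaling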
# Streptococcus = test: GAS UMAA2166 growth inhibition – luminescence, BacTiterGlo, counter-screen for streptokinase expression inhibitor project, dose response (AID 1915); assay type: functional, organism-based;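 further: potency for reduction of bacterial viability or growth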
# [9] = target: T5, G-protein coupled receptor 55 (Homo sapiens, UniProt Q9Y2T6); test: blockers of GPR55 signalling, imaged – imaging, image-based, counter-screen for GPR35 antagonist project, SAR follow-up (AID 2397); assay type: functional
# [10] = test system: Streptococcus sp. 'group A'; test: Streptococcus pyogenes SK(-)GAS viability under kanamycin – luminescence, BacTiterGlo, confirmation, counter-screen for streptokinase expression inhibitor project, dose response (AID 1900); assay type: functional, organism-based
# Cannabinoid receptor 2 [11] = target: T6, Cannabinoid receptor 2 (Homo sapiens, UniProt P34972); test: SAR analysis of agonists of the Cannabinoid Receptor 2 using an Image-Based Assay - Set 2. [Related pubchem assays (depositor defined):AID1961, AID1965]; assay type: functional
# [12] = target: T5, G-protein coupled receptor 55; test: SAR analysis of selective Agonists of GPR55 using an Image-Based Assay. [Related pubchem assays (depositor defined):AID1961, AID1965]; assay type: functional
# Cannabinoid receptor 2 [13] = target: T6, Cannabinoid receptor 2; test: SAR analysis of antagonists of the Cannabinoid Receptor 2 using an Image-Based Assay - Set 2. [Related pubchem assays (depositor defined):AID1961, AID1965]; assay type: functional
# [14] = target: T7, Tyrosine-protein phosphatase non-receptor type 7 (Homo sapiens, UniProt P35236); test: SAR analysis of chemical inhibitors of HePTP using a Fluorescent assay - Set 2. [Related pubchem assays (depositor defined):AID1059, AID1077, AID1661, AID2085, AID521]; assay type: functional
# T7 sequence (P35236 whole entry): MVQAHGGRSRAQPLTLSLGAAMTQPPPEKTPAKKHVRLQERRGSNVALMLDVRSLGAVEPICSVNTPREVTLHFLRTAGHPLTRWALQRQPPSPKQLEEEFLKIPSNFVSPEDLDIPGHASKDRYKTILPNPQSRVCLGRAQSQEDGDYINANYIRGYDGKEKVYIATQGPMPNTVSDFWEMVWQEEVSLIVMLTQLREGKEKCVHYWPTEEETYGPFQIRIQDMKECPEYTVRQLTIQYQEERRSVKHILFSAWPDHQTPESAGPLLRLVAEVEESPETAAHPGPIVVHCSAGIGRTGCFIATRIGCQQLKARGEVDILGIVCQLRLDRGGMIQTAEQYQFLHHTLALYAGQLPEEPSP
# [15] = target: T5, G-protein coupled receptor 55; test: selective activators of receptor GPR55 – imaging, U2OS cells, beta-arrestin-GFP redistribution, primary screen (AID 1961); assay type: functional
# Cannabinoid receptor 1 = Cannabinoid receptor 1 (Homo sapiens, UniProt P21554); test: SAR analysis of antagonists of the Cannabinoid Receptor 1 using an Image-Based Assay. [Related pubchem assays (depositor defined):AID1961, AID1965]; assay type: functional
# [16] = target: Dual specificity protein phosphatase 3 (Homo sapiens, UniProt P51452); test: SAR VHR1 Fluorescent Assay for In Vitro dose response studies Set 2. [Related pubchem assays (depositor defined):AID1654, AID1661, AID1878]; assay type: functional
# Cytochrome P450 2D6 = Cytochrome P450 2D6 (Homo sapiens, UniProt P10635);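 further: CYP2D6 member of a cytochrome P450 panel assay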
# [17] = target: T8, Sphingosine 1-phosphate receptor 4 (Homo sapiens, UniProt O95977); test: Fluorescence dose response cell-based high throughput screening assay for agonists of the Sphingosine 1-Phosphate Receptor 4 (S1P4). [Related pubchem assays: 1509 (Primary screen.), 1523 (Confirmation screen in triplicates.)]; assay type: functional
# T8 sequence (O95977 whole entry): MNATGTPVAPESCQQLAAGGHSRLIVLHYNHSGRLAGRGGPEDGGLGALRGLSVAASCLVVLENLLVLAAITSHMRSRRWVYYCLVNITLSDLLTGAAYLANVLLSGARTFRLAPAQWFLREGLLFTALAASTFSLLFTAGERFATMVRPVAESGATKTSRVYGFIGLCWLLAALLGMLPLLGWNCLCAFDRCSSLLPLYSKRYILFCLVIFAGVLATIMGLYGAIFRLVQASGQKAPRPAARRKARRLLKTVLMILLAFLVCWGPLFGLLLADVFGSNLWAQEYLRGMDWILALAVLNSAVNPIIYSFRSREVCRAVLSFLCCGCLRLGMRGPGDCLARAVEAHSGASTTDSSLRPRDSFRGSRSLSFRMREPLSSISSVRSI
# [18] = target: Sphingosine 1-phosphate receptor 1 (Homo sapiens, UniProt P21453); test: Fluorescence-based counterscreen assay for S1P4 agonists: Cell-based dose response high throughput screening assay to identify agonists of the Sphingosine 1-Phosphate Receptor 1 (S1P1). [Related pubchem assays (depositor defined):AID1509, AID1523, AID1801, AID463107, AID463118, AID463119, AID463122, AID463123, AID463129, AID463225, AID504400, AID504460]; assay type: functional
# [19] = target: T3, Alkaline phosphatase, tissue-nonspecific isozyme; test: activation of tissue-nonspecific alkaline phosphatase – biochemical, TNAP isozyme, human IAP uHTS hits, selectivity assay for human IAP activator project, dose response (AID 488886); assay type: functional;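 further: potency of compounds raising TNAP activity as a selectivity check on IAP activators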
# [20] = target: T1, Intestinal-type alkaline phosphatase; test: human intestinal alkaline phosphatase activators, dose response, biochemical, luminescence, uHTS hits (AID 463120); assay type: functional
# [21] = target: T1, Intestinal-type alkaline phosphatase; test: activation of human intestinal alkaline phosphatase – biochemical, luminescent, uHTS hits, set 2, dose response (AID 488817); assay type: functional;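 further: potency of activators that raise enzyme activity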
# [22] = target: T2, Intestinal-type alkaline phosphatase; test: PubChem AID 488874; assay type: functional
# T5 sequence (Q9Y2T6 whole entry): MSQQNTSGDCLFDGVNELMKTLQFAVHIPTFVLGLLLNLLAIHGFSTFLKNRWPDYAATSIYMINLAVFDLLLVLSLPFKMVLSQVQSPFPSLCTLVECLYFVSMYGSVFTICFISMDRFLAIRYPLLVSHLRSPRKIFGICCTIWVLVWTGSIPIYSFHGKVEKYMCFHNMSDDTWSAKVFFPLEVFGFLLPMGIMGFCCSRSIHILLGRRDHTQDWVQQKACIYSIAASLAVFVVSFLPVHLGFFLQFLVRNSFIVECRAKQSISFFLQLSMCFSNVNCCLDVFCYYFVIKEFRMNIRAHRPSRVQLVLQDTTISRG
# T1 sequence (P09923 whole entry): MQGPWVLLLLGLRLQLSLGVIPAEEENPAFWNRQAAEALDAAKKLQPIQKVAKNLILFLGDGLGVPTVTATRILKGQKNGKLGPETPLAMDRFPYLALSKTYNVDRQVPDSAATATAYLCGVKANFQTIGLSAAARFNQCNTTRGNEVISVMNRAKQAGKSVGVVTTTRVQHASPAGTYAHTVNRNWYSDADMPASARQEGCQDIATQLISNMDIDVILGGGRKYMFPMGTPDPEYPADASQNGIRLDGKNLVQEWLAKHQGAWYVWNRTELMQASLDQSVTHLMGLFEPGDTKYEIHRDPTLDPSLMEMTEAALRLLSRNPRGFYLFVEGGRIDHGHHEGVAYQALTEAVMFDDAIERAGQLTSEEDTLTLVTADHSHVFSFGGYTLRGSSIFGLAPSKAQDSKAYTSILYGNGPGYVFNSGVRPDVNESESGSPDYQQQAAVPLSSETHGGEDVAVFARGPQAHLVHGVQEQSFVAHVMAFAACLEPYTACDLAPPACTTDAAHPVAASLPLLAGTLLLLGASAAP
# T6 sequence (P34972 whole entry): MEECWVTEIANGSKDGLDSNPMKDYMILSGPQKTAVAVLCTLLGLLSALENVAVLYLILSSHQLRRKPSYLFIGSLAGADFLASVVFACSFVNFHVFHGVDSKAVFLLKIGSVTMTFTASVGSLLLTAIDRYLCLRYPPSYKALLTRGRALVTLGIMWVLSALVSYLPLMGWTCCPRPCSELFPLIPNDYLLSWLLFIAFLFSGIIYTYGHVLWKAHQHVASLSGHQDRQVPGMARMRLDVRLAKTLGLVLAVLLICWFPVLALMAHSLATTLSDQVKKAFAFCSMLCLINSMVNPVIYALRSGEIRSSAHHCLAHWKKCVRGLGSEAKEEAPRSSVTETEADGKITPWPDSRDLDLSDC
# T2 sequence (P24822 whole entry): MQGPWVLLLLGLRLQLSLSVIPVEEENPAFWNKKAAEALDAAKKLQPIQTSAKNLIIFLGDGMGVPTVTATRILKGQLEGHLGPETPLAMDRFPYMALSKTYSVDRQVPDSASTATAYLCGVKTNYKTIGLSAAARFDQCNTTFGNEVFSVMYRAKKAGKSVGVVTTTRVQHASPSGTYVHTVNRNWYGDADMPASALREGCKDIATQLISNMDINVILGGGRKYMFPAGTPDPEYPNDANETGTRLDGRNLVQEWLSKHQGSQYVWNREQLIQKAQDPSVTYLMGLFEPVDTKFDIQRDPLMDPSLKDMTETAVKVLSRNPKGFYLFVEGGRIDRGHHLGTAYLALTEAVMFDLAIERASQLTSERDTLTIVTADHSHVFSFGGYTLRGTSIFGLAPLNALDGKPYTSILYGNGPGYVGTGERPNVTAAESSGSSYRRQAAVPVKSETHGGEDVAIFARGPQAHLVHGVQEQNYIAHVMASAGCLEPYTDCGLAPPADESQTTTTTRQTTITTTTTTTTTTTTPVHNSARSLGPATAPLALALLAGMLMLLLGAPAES
# Beta Lactamase, sequence (Q932Y6 whole entry): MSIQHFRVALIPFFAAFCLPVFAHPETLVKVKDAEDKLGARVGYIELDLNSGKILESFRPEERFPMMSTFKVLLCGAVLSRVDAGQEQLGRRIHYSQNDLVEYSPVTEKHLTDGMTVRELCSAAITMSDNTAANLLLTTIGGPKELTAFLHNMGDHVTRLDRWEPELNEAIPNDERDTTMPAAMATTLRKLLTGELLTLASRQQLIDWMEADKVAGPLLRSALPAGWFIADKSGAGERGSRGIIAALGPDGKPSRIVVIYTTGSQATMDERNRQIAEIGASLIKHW
# Cytochrome P450 2D6, sequence (P10635 whole entry): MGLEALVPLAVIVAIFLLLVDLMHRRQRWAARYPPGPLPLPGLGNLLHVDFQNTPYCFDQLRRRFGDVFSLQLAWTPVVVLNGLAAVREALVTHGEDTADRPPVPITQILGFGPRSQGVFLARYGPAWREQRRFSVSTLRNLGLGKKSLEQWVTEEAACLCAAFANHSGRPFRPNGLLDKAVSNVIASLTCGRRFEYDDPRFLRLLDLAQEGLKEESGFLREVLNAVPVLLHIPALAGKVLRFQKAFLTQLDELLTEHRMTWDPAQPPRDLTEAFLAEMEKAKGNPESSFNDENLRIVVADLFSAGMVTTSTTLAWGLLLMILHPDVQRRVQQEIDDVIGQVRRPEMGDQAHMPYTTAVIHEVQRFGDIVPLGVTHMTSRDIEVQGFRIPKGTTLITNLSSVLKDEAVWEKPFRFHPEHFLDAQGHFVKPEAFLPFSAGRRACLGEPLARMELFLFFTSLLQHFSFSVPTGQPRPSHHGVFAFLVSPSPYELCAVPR
# Cannabinoid receptor 1, sequence (P21554 whole entry): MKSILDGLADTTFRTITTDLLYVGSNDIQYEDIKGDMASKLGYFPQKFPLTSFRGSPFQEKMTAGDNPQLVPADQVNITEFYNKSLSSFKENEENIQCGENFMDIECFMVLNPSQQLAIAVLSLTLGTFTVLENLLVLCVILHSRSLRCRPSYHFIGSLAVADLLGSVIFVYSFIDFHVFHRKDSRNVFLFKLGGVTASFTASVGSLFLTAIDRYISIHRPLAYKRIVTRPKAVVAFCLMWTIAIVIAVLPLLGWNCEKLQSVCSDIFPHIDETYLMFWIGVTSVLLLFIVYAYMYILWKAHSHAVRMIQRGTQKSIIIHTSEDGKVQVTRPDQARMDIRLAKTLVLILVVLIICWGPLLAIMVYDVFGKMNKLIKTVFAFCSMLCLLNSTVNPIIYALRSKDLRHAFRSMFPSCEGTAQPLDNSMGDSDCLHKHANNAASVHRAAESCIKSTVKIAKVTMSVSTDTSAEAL
# Nuclear receptor ROR-alpha, sequence (P35398 whole entry): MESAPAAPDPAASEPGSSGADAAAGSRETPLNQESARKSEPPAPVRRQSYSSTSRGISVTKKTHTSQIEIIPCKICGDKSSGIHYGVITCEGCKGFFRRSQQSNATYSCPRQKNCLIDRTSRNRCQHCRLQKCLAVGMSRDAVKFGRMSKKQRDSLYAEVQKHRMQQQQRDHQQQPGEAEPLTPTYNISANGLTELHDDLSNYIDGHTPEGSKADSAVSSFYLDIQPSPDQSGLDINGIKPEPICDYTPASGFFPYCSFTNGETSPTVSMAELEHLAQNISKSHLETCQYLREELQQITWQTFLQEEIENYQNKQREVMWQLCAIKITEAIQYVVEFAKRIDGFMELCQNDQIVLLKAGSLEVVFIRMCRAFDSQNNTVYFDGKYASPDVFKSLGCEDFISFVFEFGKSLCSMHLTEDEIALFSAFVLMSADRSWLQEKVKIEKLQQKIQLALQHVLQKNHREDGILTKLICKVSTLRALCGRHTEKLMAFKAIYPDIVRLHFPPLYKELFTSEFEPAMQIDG
# Melanocortin receptor 4, sequence (P32245 whole entry): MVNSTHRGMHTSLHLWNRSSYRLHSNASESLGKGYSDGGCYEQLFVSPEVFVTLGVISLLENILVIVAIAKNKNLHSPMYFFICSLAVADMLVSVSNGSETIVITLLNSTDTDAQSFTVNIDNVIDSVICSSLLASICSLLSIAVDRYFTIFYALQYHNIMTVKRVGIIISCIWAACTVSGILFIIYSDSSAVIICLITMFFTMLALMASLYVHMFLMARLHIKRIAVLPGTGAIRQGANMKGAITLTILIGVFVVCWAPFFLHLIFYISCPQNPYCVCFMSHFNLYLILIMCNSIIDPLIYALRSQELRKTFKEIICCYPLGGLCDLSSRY
# Nuclear receptor ROR-gamma, sequence (P51449 whole entry): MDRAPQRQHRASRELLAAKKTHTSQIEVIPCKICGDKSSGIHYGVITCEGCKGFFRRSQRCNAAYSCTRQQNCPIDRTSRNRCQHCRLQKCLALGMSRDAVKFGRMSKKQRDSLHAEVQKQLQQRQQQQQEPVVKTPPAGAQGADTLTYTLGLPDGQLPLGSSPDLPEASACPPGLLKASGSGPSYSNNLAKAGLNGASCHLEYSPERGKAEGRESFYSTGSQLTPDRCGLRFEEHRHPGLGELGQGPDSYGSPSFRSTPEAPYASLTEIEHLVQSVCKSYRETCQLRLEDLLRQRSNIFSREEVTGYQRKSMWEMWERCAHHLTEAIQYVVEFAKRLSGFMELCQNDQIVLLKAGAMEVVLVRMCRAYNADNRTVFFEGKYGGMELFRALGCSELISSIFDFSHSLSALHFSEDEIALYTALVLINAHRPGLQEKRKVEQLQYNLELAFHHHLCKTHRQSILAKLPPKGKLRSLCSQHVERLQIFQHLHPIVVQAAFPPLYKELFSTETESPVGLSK
# Sphingosine 1-phosphate receptor 1, sequence (P21453 whole entry): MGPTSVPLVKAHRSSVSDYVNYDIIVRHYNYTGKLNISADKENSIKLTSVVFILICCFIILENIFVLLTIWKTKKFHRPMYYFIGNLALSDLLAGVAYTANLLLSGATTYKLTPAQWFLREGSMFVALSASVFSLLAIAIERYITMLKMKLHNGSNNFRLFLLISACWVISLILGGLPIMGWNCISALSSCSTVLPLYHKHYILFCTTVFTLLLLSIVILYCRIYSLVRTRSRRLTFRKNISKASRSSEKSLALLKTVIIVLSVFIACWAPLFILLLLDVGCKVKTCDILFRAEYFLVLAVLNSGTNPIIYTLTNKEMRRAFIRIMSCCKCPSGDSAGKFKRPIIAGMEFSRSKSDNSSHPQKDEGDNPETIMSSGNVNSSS
compound,measurement,setting,value
O=S(=O)(Nc1ccc(C(O)(C(F)(F)F)C(F)(F)F)cc1)c1ccc(Cl)c2nonc12,IC50,[1],14.3 µM (inactive)
same,IC50,[2],7.28 µM (active)
same,IC50,[3],2.08 µM (active)
same,IC50,Beta Lactamase,41.6 µM (inactive)
O=C1C2C3C=CC(C3)C2C(=O)N1c1n[nH]c(-c2cccnc2)n1 (stereo not drawn),IC50,[4],7.69 µM (active)
same,IC50,[5],5.18 µM (active)
same,EC50,[6],> 100 µM (inactive)
same,IC50,[7],> 100 µM (inactive)
Cc1nc(N2CCC(C)CC2)c2c(C)c(C(=O)Nc3ccccc3C(F)(F)F)sc2n1,IC50,Melanocortin receptor 4,> 64.6 µM (inactive)
same,EC50,Streptokinase A,6.34 µM (active)
same,IC50,[8],> 64.6 µM (inactive)
same,EC50,Streptococcus,41.5 µM (active)
same,IC50,[9],6.95 µM (active)
same,EC50,[10],3.69 µM (active)
COc1ccccc1/C=C/C(=O)NC(=S)Nc1ccc(S(=O)(=O)N(C)c2ccccc2)cc1,EC50,Cannabinoid receptor 2 [11],> 32 µM (inactive)
same,EC50,[12],0.114 µM (active)
same,IC50,Cannabinoid receptor 2 [13],> 32 µM (inactive)
same,IC50,[14],> 100 µM (inactive)
same,EC50,[15],< 0.5 µM (active)
same,IC50,Cannabinoid receptor 1,> 32 µM (inactive)
same,IC50,[16],> 100 µM (inactive)
CC1Cc2ccccc2N1C(=O)CN1C(=O)COc2ccccc21 (stereo not drawn),AC50,Cytochrome P450 2D6,inconclusive
O=C(NCc1ccccc1)c1nc[nH]c1C(=O)N[C@@H](Cc1ccccc1)C(=O)OCc1ccccc1,EC50,[17],90.2 µM (not active)
same,EC50,[18],> 49.8 µM (inactive)
Cc1cccc(-n2ncc3c(NNC(=O)c4ccco4)ncnc32)c1,EC50,[19],7.58 µM (active)
same,EC50,[20],7.19 µM (active)
same,EC50,[21],7.33 µM (active)
same,IC50,[22],66.9 µM (active)
